Assays:
[1] = system: Mycobacterium phlei IFO 3158; assay: paper disk antibacterial test, Mycobacterium phlei; assay type: cell-based; details: for The diameter of cell growth inhibition zone against M. Phlei: 2 μg/disc; for the diameter of cell growth inhibition zone: Mycobacterium phlei IFO 3158, 20 μg/disc
Description: (§1) Methanol solution of each tested substance with specific concentration was sunk on a paper disk with diameter of 8 mm (Thick, Toyo-roshi) and dried, which was placed on a plate of each bacterium. After culture under the conditions suitable for each bacterium, the diameter of cell growth was measured, The results are shown in Table 4, 5 and 6.

Escherichia coli AB 1157 = assay: paper disk antibacterial test, Escherichia coli AB 1157; assay type: cell-based; details: 20 μg/disc
Description: as §1

BALB/3T3 cells = assay: cytotoxicity test (MTT); assay type: cell-based; details: 3 days culture
Description: BALB/3T3 cells (100 μl) were inoculated into 10% FBS added DMEM medium (Gibco) in 96 well plate so as to be 1×10^5 cells/ml under 5% CO2 at 37° C., which was cultured overnight. The test substance dissolved in methanol was added thereto, which was cultured for more 3 days and further kept cultured for 4 hours after adding 10 μl of 2.5 mg/ml MTT reagent (Sigma). After removing supernatant, 100 μl of DMSO was added thereto and kept it overnight. The absorbance thereof at 540 nm was determined to detect viable cells.

[2] = system: Bacillus subtilis IFO 3513; assay: paper disk antibacterial test, Bacillus subtilis IFO 3513; assay type: cell-based; details: 20 μg/disc; for the diameter of cell growth inhibition zone: ( ) represents partial inhibition
Description: as §1

[3] = system: Staphylococcus aureus IFO 12732; assay: paper disk antibacterial test, Staphylococcus aureus IFO 12732; assay type: cell-based; details: 20 μg/disc
Description: as §1

peptidoglycan synthesis = assay: inhibitory activity on peptidoglycan synthesis (crude enzyme, UDP-[3H]GlcNAc incorporation); assay type: biochemical, Escherichia coli; details: 0.1 μg/ml
Description: Crude enzyme and substrate UDP-MurNAc-pentapeptide were prepared from Escherichia coli and Bacillus subtilis respectively according to a reference (J. Biol. Chem., 243, 3180 (1968)). Enzymatic reaction was carried out by mixing 5 μl of 1M Tris-HCl (pH 7.5), 10 μl of 0.1M MgCl2, 5 μl of 2 mM UDP-MurNAc-pentapeptide, 5 μl of enzyme solution(15 mg/ml protein concentration), 5 μl of sample, 5 μl of UDP-[U-^3H]GlcNAc (10 μCi/ml, 25.8 Ci/mmol., Du'pont) and 15 μl of water at 37° C. for 60 minutes and […]. After ice-cooling, it was trapped on a GF/C glass filter(2.4 cm, Whatman). And after adding scintillator thereto, radiation thereof was counted. Inhibitory % was calculated by comparing the count of control.

[4] = system: Candida albicans IFO 5994; assay: paper disk test, Candida albicans IFO 5994; assay type: cell-based; details: 20 μg/disc
Description: as §1

Escherichia coli BE 1186 = assay: paper disk antibacterial test, Escherichia coli BE 1186; assay type: cell-based; details: 20 μg/disc, ( ) represents partial inhibition
Description: as §1

Row | Compound | The diameter of cell growth inhibition zone against M. Phlei ([1]; Table 5) | The diameter of cell growth inhibition zone against M. Phlei ([1]; Table 6) | the diameter of cell growth inhibition zone [1] | the diameter of cell growth inhibition zone (Escherichia coli AB 1157) | Cytotoxicity against BALB/3T3 (IC50) (BALB/3T3 cells) | the diameter of cell growth inhibition zone [2] | the diameter of cell growth inhibition zone [3] | Inhibitory activity on peptidoglycan synthesis (peptidoglycan synthesis) | the diameter of cell growth inhibition zone [4] | the diameter of cell growth inhibition zone (Escherichia coli BE 1186) | the diameter of cell growth inhibition zone, partial inhibition (value in brackets) [2]
1 | CCCCCC=CCC=CCCCC(CC(=O)OC1CN(C)C(C(OC2OC(CN)C(O)C2OS(=O)(=O)O)C2OC(n3ccc(=O)[nH]c3=O)C(O)C2O)C(=O)N(C)C1C(=O)O)OC(=O)CC(C)CC(=O)O (centres unmarked) [Liposidomycins A, reference compound] | 0 mm | 0 mm | 18.9 mm | 0 mm | >25 µg/mL | 0 mm | 0 mm | 95% | 0 mm |  | 
2 | CCCCCC=CCC=CCCCC(CC(=O)OC1CN(C)C(C(OC2OC(CN)C(O)C2O)C2OC(n3ccc(=O)[nH]c3=O)C(O)C2O)C(=O)N(C)C1C(=O)O)OC(=O)CC(C)CC(=O)O (centres unmarked) [Liposidomycins A-(III)] | 11.62 mm | 14.3^− mm | 24.8 mm | 0 mm | >25 µg/mL | 21.0 mm | 0 mm | 96% | 0 mm | 17.8 mm | 
3 | CCCCCCCCCCCC(CC(=O)OC1CN(C)C(C(OC2OC(CN)C(O)C2OS(=O)(=O)O)C2OC(n3ccc(=O)[nH]c3=O)C(O)C2O)C(=O)N(C)C1C(=O)O)OC(=O)CC(C)CC(=O)O (centres unmarked) [Liposidomycins C, reference compound] | 0 mm |  | 22.1 mm | 0 mm |  | 0 mm | 0 mm |  | 0 mm | 0 mm | 
4 | CCCCCCCCCCCC(CC(=O)OC1CN(C)C(C(OC2OC(CN)C(O)C2O)C2OC(n3ccc(=O)[nH]c3=O)C(O)C2O)C(=O)N(C)C1C(=O)O)OC(=O)CC(C)CC(=O)O (centres unmarked) [Liposidomycins C-(III)] | 16.21 mm |  | 30.3 mm | 0 mm |  | 17.8 mm | 0 mm |  | 0 mm | 14.3 mm | (23.7) mm
5 | CCCCCCCCC=CCCCC(CC(=O)OC1CN(C)C(C(OC2OC(CN)C(O)C2O)C2OC(n3ccc(=O)[nH]c3=O)C(O)C2O)C(=O)N(C)C1C(=O)O)OC(=O)CC(C)CC(=O)O (centres unmarked) [Liposidomycins G-(III)] | 16.68 mm |  |  |  |  |  |  |  |  |  | 
6 | CCCCCC=CCC=CCCCCCC(CC(=O)OC1CN(C)C(C(OC2OC(CN)C(O)C2O)C2OC(n3ccc(=O)[nH]c3=O)C(O)C2O)C(=O)N(C)C1C(=O)O)OC(=O)CC(C)CC(=O)O (centres unmarked) [Liposidomycins K-(III)] | 12.27 mm |  | 23.3 mm | 0 mm |  | 13.0 mm | 0 mm |  | 0 mm | 13.5 mm | 
7 | CCCCCC=CCC=CCCCCCC(CC(=O)OC1CN(C)C(C(OC2OC(CN)C(O)C2OS(=O)(=O)O)C2OC(n3ccc(=O)[nH]c3=O)C(O)C2O)C(=O)N(C)C1C(=O)O)OC(=O)CC(C)CC(=O)O (centres unmarked) [Liposidomycins K] | 13.15 mm |  | 28.6 mm | 0 mm |  |  | 0 mm |  | 0 mm |  | 
8 | CC(C)CCCCCCCCCCC(CC(=O)OC1CN(C)C(C(OC2OC(CN)C(O)C2OS(=O)(=O)O)C2OC(n3ccc(=O)[nH]c3=O)C(O)C2O)C(=O)N(C)C1C(=O)O)OC(=O)CC(C)CC(=O)O (centres unmarked) [Liposidomycins L] | 14.08 mm |  |  |  |  |  |  |  |  |  | 
9 | CCCCCCCCCCCCCC(CC(=O)OC1CN(C)C(C(OC2OC(CN)C(O)C2O)C2OC(n3ccc(=O)[nH]c3=O)C(O)C2O)C(=O)N(C)C1C(=O)O)OC(=O)CC(C)CC(=O)O (centres unmarked) [Liposidomycins M-(III)] | 15.49 mm |  | 25.7 mm | 0 mm |  | 14.8 mm | 0 mm |  | 0 mm |  | 
10 | CCCCCCCCCCCCCC(CC(=O)OC1CN(C)C(C(OC2OC(CN)C(O)C2OS(=O)(=O)O)C2OC(n3ccc(=O)[nH]c3=O)C(O)C2O)C(=O)N(C)C1C(=O)O)OC(=O)CC(C)CC(=O)O (centres unmarked) [Liposidomycins M] | 16.86 mm |  | 27.2 mm | 0 mm |  | 9.7 mm | 0 mm |  | 0 mm | 0 mm | (13.0) mm
11 | CCCCCC=CCC=CCC(CC(=O)OC1CN(C)C(C(OC2OC(CN)C(O)C2O)C2OC(n3ccc(=O)[nH]c3=O)C(O)C2O)C(=O)N(C)C1C(=O)O)OC(=O)CC(C)CC(=O)O (centres unmarked) [Liposidomycins Y-(III)] | 0 mm |  |  |  |  |  |  |  |  |  | 
12 | CCCCCCCCC=CCC(CC(=O)OC1CN(C)C(C(OC2OC(CN)C(O)C2O)C2OC(n3ccc(=O)[nH]c3=O)C(O)C2O)C(=O)N(C)C1C(=O)O)OC(=O)CC(C)CC(=O)O (centres unmarked) [Liposidomycins Z-(III)] | 13.74 mm |  | 26.3 mm | 0 mm |  | 22.2 mm | 0 mm |  | 0 mm | 18.8 mm | 
13 | CCCCCCCCC=CCC(CC(=O)OC1CN(C)C(C(OC2OC(CN)C(O)C2OS(=O)(=O)O)C2OC(n3ccc(=O)[nH]c3=O)C(O)C2O)C(=O)N(C)C1C(=O)O)OC(=O)CC(C)CC(=O)O (centres unmarked) [Liposidomycins Z] | 0 mm |  |  | 0 mm |  | 0 mm | 0 mm |  | 0 mm |  | 
14 | Tunicamycin [TM] |  |  |  |  | 0.05 µg/mL |  |  | 10% |  |  | 
